Assay results: PubChem BioAssay AID2060485 (Molecular Pharmacology Branch, DTP, NCI, 2025)

System: A375 multi-cell spheroids with HUVEC/MSC, viability
Assay: Anticancer human tumor A375 cell line growth inhibition [GQUAD];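 also: spheroids exposed to compounds for seven days before readout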
Conditions: for IC50: curve of first compound; for viability, T/C: stronger effect = lower value
Method in brief: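 Multi-cell-type spheroids of tumor cells with HUVEC and mesenchymal stem cells, treated with drug combinations. Concentrations descend in half-log steps from near clinical Cmax, or from 10 microM where Cmax is unknown; viability read-out.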

[1] = second compound 0.0316 µM, first compound 0.0316 µM
[2] = second compound 0.0316 µM, first compound 0.1 µM
[3] = second compound 0.0316 µM, first compound 0.316 µM
[4] = second compound 0.0316 µM, first compound 1 µM
[5] = second compound 0.0316 µM, first compound 3.16 µM
[6] = second compound 0.0316 µM, first compound 10 µM
[7] = second compound 0.1 µM, first compound 0.0316 µM
[8] = second compound 0.1 µM, first compound 0.1 µM
[9] = second compound 0.1 µM, first compound 0.316 µM
[10] = second compound 0.1 µM, first compound 1 µM
[11] = second compound 0.1 µM, first compound 3.16 µM
[12] = second compound 0.1 µM, first compound 10 µM
[13] = second compound 0.316 µM, first compound 0.0316 µM
[14] = second compound 0.316 µM, first compound 0.1 µM
[15] = second compound 0.316 µM, first compound 0.316 µM
[16] = second compound 0.316 µM, first compound 1 µM
[17] = second compound 0.316 µM, first compound 3.16 µM
[18] = second compound 0.316 µM, first compound 10 µM
[19] = second compound 1 µM, first compound 0.0316 µM
[20] = second compound 1 µM, first compound 0.1 µM
[21] = second compound 1 µM, first compound 0.316 µM
[22] = second compound 1 µM, first compound 1 µM
[23] = second compound 1 µM, first compound 3.16 µM
[24] = second compound 1 µM, first compound 10 µM
[25] = second compound 3.16 µM, first compound 0.0316 µM
[26] = second compound 3.16 µM, first compound 0.1 µM
[27] = second compound 3.16 µM, first compound 0.316 µM
[28] = second compound 3.16 µM, first compound 1 µM
[29] = second compound 3.16 µM, first compound 3.16 µM
[30] = second compound 3.16 µM, first compound 10 µM
[31] = second compound 10 µM, first compound 0.0316 µM
[32] = second compound 10 µM, first compound 0.1 µM
[33] = second compound 10 µM, first compound 0.316 µM
[34] = second compound 10 µM, first compound 1 µM
[35] = second compound 10 µM, first compound 3.16 µM
[36] = second compound 10 µM, first compound 10 µM

With CC1COCCN1c1cc(C2(O)CC3CCC(C2)O3)c2cnn(-c3ccn[nH]3)c2n1 (stereo not drawn) + CN(C)c1ccc(Nc2c3ccc(NC(=O)CCN4CCCC4)cc3nc3cc(NC(=O)CCN4CCCC4)ccc23)cc1 the IC50 (second compound 0.0316 µM) was 199 nM, the IC50 (second compound 0.1 µM) was 188 nM and the IC50 (second compound 0.316 µM) was 210 nM. The IC50 (second compound 1 µM) was 203 nM, the IC50 (second compound 3.16 µM) was 226 nM and the IC50 (second compound 10 µM) was 204 nM. It also gave a viability, T/C [1] of 94.4%, a viability, T/C [2] of 70.8% and a viability, T/C [3] of 36.1%. The viability, T/C [4] was 15.5%, the viability, T/C [5] was 11.3% and the viability, T/C [6] was 6.63%. It also gave a viability, T/C [7] of 97.4%, a viability, T/C [8] of 70.4% and a viability, T/C [9] of 32.7%. The viability, T/C [10] was 15.7%, the viability, T/C [11] was 8.49% and the viability, T/C [12] was 6.23%. For the same compound, the viability, T/C [13] was 101%, the viability, T/C [14] was 70.7% and the viability, T/C [15] was 40.5%. It also gave a viability, T/C [16] of 13.9%, a viability, T/C [17] of 10.9% and a viability, T/C [18] of 7.23%. For the same compound, the viability, T/C [19] was 97.9%, the viability, T/C [20] was 72.4% and the viability, T/C [21] was 35.6%. For the same compound, the viability, T/C [22] was 16.3%, the viability, T/C [23] was 11.7% and the viability, T/C [24] was 7.1%. It also gave a viability, T/C [25] of 97.2%, a viability, T/C [26] of 72.7% and a viability, T/C [27] of 41%. For the same compound, the viability, T/C [28] was 17.8%, the viability, T/C [29] was 11.1% and the viability, T/C [30] was 7.14%. The viability, T/C [31] was 87.7%, the viability, T/C [32] was 67.8% and the viability, T/C [33] was 39.7%. The viability, T/C [34] was 16%, the viability, T/C [35] was 11.5% and the viability, T/C [36] was 6.9%.
For Cc1cccc(N(C)C(=O)C2C(O)CCN2c2nc(C)cc(C(F)(F)F)c2C#N)c1 (stereo not drawn) + CN(C)c1ccc(Nc2c3ccc(NC(=O)CCN4CCCC4)cc3nc3cc(NC(=O)CCN4CCCC4)ccc23)cc1, the IC50 (second compound 0.0316 µM) was > 10000 nM, the IC50 (second compound 0.1 µM) was > 10000 nM and the IC50 (second compound 0.316 µM) was > 10000 nM. The IC50 (second compound 1 µM) was > 10000 nM, the IC50 (second compound 3.16 µM) was > 10000 nM and the IC50 (second compound 10 µM) was > 10000 nM. For the same compound, the viability, T/C [1] was 103%, the viability, T/C [2] was 98.6% and the viability, T/C [3] was 104%. For the same compound, the viability, T/C [4] was 105%, the viability, T/C [5] was 105% and the viability, T/C [6] was 102%. It also gave a viability, T/C [7] of 113%, a viability, T/C [8] of 104% and a viability, T/C [9] of 99.8%. The viability, T/C [10] was 97%, the viability, T/C [11] was 107% and the viability, T/C [12] was 102%. For the same compound, the viability, T/C [13] was 113%, the viability, T/C [14] was 101% and the viability, T/C [15] was 101%. For the same compound, the viability, T/C [16] was 109%, the viability, T/C [17] was 99.1% and the viability, T/C [18] was 95.7%. For the same compound, the viability, T/C [19] was 107%, the viability, T/C [20] was 98.3% and the viability, T/C [21] was 97.3%. The viability, T/C [22] was 96.9%, the viability, T/C [23] was 104% and the viability, T/C [24] was 97.3%. The viability, T/C [25] was 117%, the viability, T/C [26] was 106% and the viability, T/C [27] was 93.9%. It also gave a viability, T/C [28] of 101%, a viability, T/C [29] of 98% and a viability, T/C [30] of 100%. The viability, T/C [31] was 95.7%, the viability, T/C [32] was 96.3% and the viability, T/C [33] was 89.9%. It also gave a viability, T/C [34] of 93.7%, a viability, T/C [35] of 96.5% and a viability, T/C [36] of 74.3%.
In the case of Cn1ncnc1[C@H]1c2n[nH]c(=O)c3cc(F)cc(c23)N[C@@H]1c1ccc(F)cc1 + CN(C)c1ccc(Nc2c3ccc(NC(=O)CCN4CCCC4)cc3nc3cc(NC(=O)CCN4CCCC4)ccc23)cc1, the IC50 (second compound 0.0316 µM) is reported as > 316 nM, the IC50 (second compound 0.1 µM) is reported as > 316 nM and the IC50 (second compound 0.316 µM) is reported as > 316 nM. The IC50 (second compound 1 µM) was > 316 nM, the IC50 (second compound 3.16 µM) was > 316 nM and the IC50 (second compound 10 µM) was > 316 nM. The viability, T/C (second compound 0.0316 µM, first compound 0.000999 µM) was 96.8%, the viability, T/C (second compound 0.0316 µM, first compound 0.00316 µM) was 104% and the viability, T/C (second compound 0.0316 µM, first compound 0.00999 µM) was 105%. It also gave a viability, T/C [1] of 104%, a viability, T/C (second compound 0.0316 µM, first compound 0.0999 µM) of 105% and a viability, T/C [3] of 97.1%. For the same compound, the viability, T/C (second compound 0.1 µM, first compound 0.000999 µM) was 102%, the viability, T/C (second compound 0.1 µM, first compound 0.00316 µM) was 102% and the viability, T/C (second compound 0.1 µM, first compound 0.00999 µM) was 97.2%. The viability, T/C [7] was 101%, the viability, T/C (second compound 0.1 µM, first compound 0.0999 µM) was 103% and the viability, T/C [9] was 84.7%. The viability, T/C (second compound 0.316 µM, first compound 0.000999 µM) was 115%, the viability, T/C (second compound 0.316 µM, first compound 0.00316 µM) was 93.6% and the viability, T/C (second compound 0.316 µM, first compound 0.00999 µM) was 101%. It also gave a viability, T/C [13] of 110%, a viability, T/C (second compound 0.316 µM, first compound 0.0999 µM) of 107% and a viability, T/C [15] of 98.8%. It also gave a viability, T/C (second compound 1 µM, first compound 0.000999 µM) of 111%, a viability, T/C (second compound 1 µM, first compound 0.00316 µM) of 105% and a viability, T/C (second compound 1 µM, first compound 0.00999 µM) of 101%. For the same compound, the viability, T/C [19] was 110%, the viability, T/C (second compound 1 µM, first compound 0.0999 µM) was 116% and the viability, T/C [21] was 110%. The viability, T/C (second compound 3.16 µM, first compound 0.000999 µM) was 107%, the viability, T/C (second compound 3.16 µM, first compound 0.00316 µM) was 98% and the viability, T/C (second compound 3.16 µM, first compound 0.00999 µM) was 99.8%. For the same compound, the viability, T/C [25] was 105%, the viability, T/C (second compound 3.16 µM, first compound 0.0999 µM) was 106% and the viability, T/C [27] was 106%. The viability, T/C (second compound 10 µM, first compound 0.000999 µM) was 98.3%, the viability, T/C (second compound 10 µM, first compound 0.00316 µM) was 97.5% and the viability, T/C (second compound 10 µM, first compound 0.00999 µM) was 97.1%. For the same compound, the viability, T/C [31] was 107%, the viability, T/C (second compound 10 µM, first compound 0.0999 µM) was 104% and the viability, T/C [33] was 97.9%.
With O=C(c1cc(Cc2n[nH]c(=O)c3ccccc23)ccc1F)N1CCN(C(=O)C2CC2)CC1 + CN(C)c1ccc(Nc2c3ccc(NC(=O)CCN4CCCC4)cc3nc3cc(NC(=O)CCN4CCCC4)ccc23)cc1 the IC50 (second compound 0.0316 µM) was > 10000 nM, the IC50 (second compound 0.1 µM) was > 10000 nM and the IC50 (second compound 0.316 µM) was > 10000 nM. The IC50 (second compound 1 µM) was > 10000 nM, the IC50 (second compound 3.16 µM) was > 10000 nM and the IC50 (second compound 10 µM) was > 10000 nM. The viability, T/C [1] was 104%, the viability, T/C [2] was 95.7% and the viability, T/C [3] was 113%. The viability, T/C [4] was 99.9%, the viability, T/C [5] was 103% and the viability, T/C [6] was 81.1%. The viability, T/C [7] was 104%, the viability, T/C [8] was 102% and the viability, T/C [9] was 103%. The viability, T/C [10] was 100%, the viability, T/C [11] was 102% and the viability, T/C [12] was 75.6%. The viability, T/C [13] was 101%, the viability, T/C [14] was 101% and the viability, T/C [15] was 102%. For the same compound, the viability, T/C [16] was 105%, the viability, T/C [17] was 97.6% and the viability, T/C [18] was 77.6%. For the same compound, the viability, T/C [19] was 97.1%, the viability, T/C [20] was 102% and the viability, T/C [21] was 93.8%. For the same compound, the viability, T/C [22] was 103%, the viability, T/C [23] was 102% and the viability, T/C [24] was 86.8%. The viability, T/C [25] was 100%, the viability, T/C [26] was 97.5% and the viability, T/C [27] was 100%. It also gave a viability, T/C [28] of 101%, a viability, T/C [29] of 103% and a viability, T/C [30] of 73.6%. It also gave a viability, T/C [31] of 100%, a viability, T/C [32] of 96.4% and a viability, T/C [33] of 98.8%. The viability, T/C [34] was 103%, the viability, T/C [35] was 92.9% and the viability, T/C [36] was 66.7%.
